System: ileum (longitudinal muscle)
Test: Functional in vitro study: muscarinic (agonistic) activity on ileal preparations
Conditions: Cavia porcellus, guinea pig ileum, read-out: agonistic effect on ileum in relation to maximal carbachol response (Emax)
Protocol: (§1) Male guinea pigs, weighing about 300 g, were killed by a blow on the neck and exsanguinated. Smooth muscle strips of the urinary bladder and ileum (longitudinal muscle only) were dissected in a Krebs-Henseleit solution (pH 7.4). The strip preparations were then vertically mounted between two hooks in thermostatically controlled (37° C.) organ baths (5 mL). One of the hooks was adjustable and connected to a force transducer (FT 03, Grass Instruments). The Krebs-Henseleit solution was continuously bubbled with carbogen gas (93.5% O2 /6.5% CO2) to maintain pH at 7.4. Isometric tension was recorded by a Grass Polygraph (model 79D). A resting tension of approximately 5 mN was initially applied on each muscle strip and the preparations were allowed to stabilize for at least 45 min. The resting tension was repeatedly adjusted and the preparations were washed several times during the stabilization period.
The urinary bladder strips were used for evaluation of antimuscarinic activity and the ileal preparations for studies of muscarinic activity. Carbachol (carbamylcholine chloride) was used as the standard agonist. Concentration-response curves to agonists were generated either by the cumulative dose-response technique (bladder strip) or by the addition of single agonist concentrations (ileal preparations). […] EC50 values were graphically determined. […]

SMILES | Emax at 500 µM [%]
Cc1ccc(C2=CN3CCC2CC3)s1 [Example 19, 3-(5-methyl-2-thienyl)quinuclidin-2-ene] | 10
COC(=O)c1ccc(C2=CN3CCC2CC3)o1 [Example 31, 3-(2-Methoxycarbonyl-5-furyl)-quinuclidin-2-ene] | 21

Target: T1, smooth muscle strips of the urinary bladder (Cavia porcellus, UniProt H0W1Z3)
T1 construct: Smooth muscle strips of the urinary bladder and ileum (longitudinal muscle only) were dissected; from tissue; host or cells: guinea pig urinary bladder smooth muscle strips
T1 sequence (H0W1Z3 1-590): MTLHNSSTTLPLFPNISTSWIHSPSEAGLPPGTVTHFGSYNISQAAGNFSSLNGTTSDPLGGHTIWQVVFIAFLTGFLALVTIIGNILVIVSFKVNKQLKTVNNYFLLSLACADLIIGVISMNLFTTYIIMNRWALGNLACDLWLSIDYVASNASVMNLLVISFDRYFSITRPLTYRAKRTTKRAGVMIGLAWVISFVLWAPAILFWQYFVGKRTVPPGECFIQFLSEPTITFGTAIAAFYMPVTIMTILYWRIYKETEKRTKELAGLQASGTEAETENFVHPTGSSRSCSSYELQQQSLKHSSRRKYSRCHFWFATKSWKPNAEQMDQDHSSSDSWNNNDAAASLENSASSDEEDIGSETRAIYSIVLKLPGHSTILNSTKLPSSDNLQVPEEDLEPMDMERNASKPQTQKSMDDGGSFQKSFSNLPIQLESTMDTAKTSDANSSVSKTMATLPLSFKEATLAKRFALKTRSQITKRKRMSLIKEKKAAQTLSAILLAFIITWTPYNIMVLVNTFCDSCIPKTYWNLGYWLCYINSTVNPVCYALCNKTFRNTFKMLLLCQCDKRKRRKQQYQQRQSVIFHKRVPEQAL
Test: Functional in vitro study: antimuscarinic activity (antagonism of carbachol contraction) on urinary bladder strips
Set-up: species or system guinea pig
Conditions: not given
Protocol: as §1
The urinary bladder strips were used for evaluation of antimuscarinic activity and the ileal preparations for studies of muscarinic activity. Carbachol (carbamylcholine chloride) was used as the standard agonist. Concentration-response curves to agonists were generated either by the cumulative dose-response technique (bladder strip) or by the addition of single agonist concentrations (ileal preparations). In the latter case, the preparations were washed and allowed to rest between each concentration of agonist. EC50 values were graphically determined.
In studies of antagonism, a control concentration-response curve to carbachol was generated by cumulative addition of carbachol to the bladder strip (i.e., stepwise increase of the agonist concentration until the maximal contractile response was reached), followed by washing out and a resting period of at least 15 min. before a fix concentration of the test compound (antagonist) was added to the organ-bath. After 60 min. of incubation, a second cumulative concentration-response curve to carbachol was generated. Responses were expressed as percent of the maximal response to carbachol. EC50 -values for carbachol in the absence (control) and presence of antagonist were graphically derived and dose ratios (r) were calculated. Dissociation constants, Kb, for the antagonists were then calculated using the following equation (1), where [A] is the concentration of test compound.

SMILES | Kb [nM]
Cc1ccc(C2(O)CN3CCC2CC3)s1 (stereo not drawn) [Example 6, 3-(5-Methylthienyl)quinuclidin-3-ol] | 23000
CCc1ccc(C2(O)CN3CCC2CC3)o1 (stereo not drawn) [Example 8, 3-(5-Ethyl-2-furyl)quinuclidin-3-ol] | 6700
Cc1ccc(C2(O)CN3CCC2CC3)o1 (stereo not drawn) [Example 4, 3-(5-Methyl-2-furyl)quinuclidin-3-ol] | 1200

Same assay, conditions: read-out: Kb (dissociation constant for the antagonist)

Kb [nM] | SMILES
31 | CCc1ccc(C2=CN3CCC2CC3)o1 [Example 21, 3-(5-Ethyl-2-furyl)quinuclidin-2-ene]
61 | Cc1ccc(C2=CN3CCC2CC3)o1 [Example 17, 3-(5-Methyl-2-furyl)quinuclidin-2-ene]
1020 | C1=C(c2ccc(-c3ccccc3)o2)C2CCN1CC2 [Example 29, 3-(5-Phenylfuran-2-yl)quinuclidin-2-ene]
2.7 | C1=C(c2occc2-c2ccccc2)C2CCN1CC2 [Example 27, 3-(3-Phenylfuran-2-yl)quinuclidin-2-ene]

More lines, now with the values behind:

SMILES | Kb [nM]
Cc1ccc(C2=CN3CCC2CC3)s1 [Example 19, 3-(5-methyl-2-thienyl)quinuclidin-2-ene] | 320
COC(=O)c1ccc(C2=CN3CCC2CC3)o1 [Example 31, 3-(2-Methoxycarbonyl-5-furyl)-quinuclidin-2-ene] | 2600

Same assay, conditions: read-out: Kb (dissociation constant for the antagonist); guinea pig urinary bladder strip; antagonism of carbachol; 60 min incubation; Kb=[A]/r-1

SMILES | Kb [nM]
OC1(c2occc2Br)CN2CCC1CC2 (stereo not drawn) [Example 7, 3-(3-Bromo-2-furyl)quinuclidin-3-ol] | 11000

Reference: patent US5599937A, “Heteroaromatic quinuclidinenes, their use and preparation” (Pharmacia AB, priority 1992, dated 1997)
